Measurements taken from the NIST ThermoML archive (doi:10.1021/je060253t).
Values joined by “and” are separate entries in the source; they are usually repeats but may differ in a detail not shown here. Equal entries are not always repeated. Numbers after ± are expanded uncertainties.

Conditions: 313.15 K; Liquid; Closed cell (Static) method

vapor or sublimation pressure	Compound
59.92 ± 0.21 kPa and 59.91 ± 0.21 kPa	COC(C)(C)C [2-methoxy-2-methylpropane]
37.3 ± 0.14 kPa and 37.25 ± 0.14 kPa	CCCCCC [hexane]

Compound	vapor or sublimation pressure
CCCO [propan-1-ol]	6.999 ± 0.038 kPa and 7.007 ± 0.038 kPa and 7 ± 0.038 kPa
